# Test results taken from ChEMBL document CHEMBL6127119 (J Med Chem, 2024).
# Activity calls are given as the source filed them. The rule behind the calls is not given here.
# Assays:
# Staphylococcus aureus [1] = assay: Post-antibiotic effect in Staphylococcus aureus MRSA252 assessed as change in bacterial titer at 20 times measured after 2 hrs; type: functional
# Escherichia coli = assay: Antibacterial activity against Escherichia coli AB1157 incubated for 16 to 24 hrs by CLSI based broth microdilution method; type: functional; conditions: time 16-24 hrs
# Staphylococcus aureus [2] = assay: Post-antibiotic effect in Staphylococcus aureus MRSA252 assessed as change in bacterial titer at 10 times measured after 2 hrs; type: functional
# Enterococcus faecium [3] = assay: Antibacterial activity against vancomycin-resistant Enterococcus faecium harboring VanA phenotype incubated for 16 to 24 hrs by CLSI based broth microdilution method; type: functional; conditions: time 16-24 hrs
# Staphylococcus aureus [4] = assay: Post-antibiotic effect in Staphylococcus aureus MRSA252 assessed as time of effect at 10 to 20 times; type: functional
# [5] = MRT (infinity) in CD-1 mouse at 10 mg/kg, iv measured for 24 hrs by UPLC analysis; type: ADME, organism-based; conditions: in vivo
# Enterococcus faecalis = assay: Induction of inner membrane permeabilization in Enterococcus faecalis ATCC29212 at […] measured for 20 mins by DiSC3(5) staining based analysis; type: functional, organism-based; conditions: dose 128.0 µg/ml
# Staphylococcus aureus [6] = assay: Antibacterial activity against methicillin-susceptible Staphylococcus aureus incubated for 16 to 24 hrs by CLSI based broth microdilution method; type: functional; conditions: time 16-24 hrs
# Enterococcus faecium [7] = assay: Antibacterial activity against vancomycin-resistant Enterococcus faecium harboring VanB phenotype incubated for 16 to 24 hrs by CLSI based broth microdilution method; type: functional; conditions: time 16-24 hrs
# Enterococcus faecium [8] = assay: Antibacterial activity against vancomycin-resistant Enterococcus faecium harboring VanM phenotype incubated for 16 to 24 hrs by CLSI based broth microdilution method; type: functional; conditions: time 16-24 hrs
# [9] = Toxicity in BALB/c mouse infected with methicillin-resistant Staphylococcus aureus MRSA252 assessed as survival rate at 20 mg/kg, iv for 7 days; type: organism-based; conditions: in vivo, 168 h, time 7 day
# Klebsiella pneumoniae = assay: Antibacterial activity against Klebsiella pneumoniae clinical isolate incubated for 16 to 24 hrs by CLSI based broth microdilution method; type: functional; conditions: time 16-24 hrs
# [10] = Clearance in CD-1 mouse at 10 mg/kg, iv measured for 24 hrs by UPLC analysis; type: ADME, organism-based; conditions: in vivo
# Staphylococcus aureus [11] = assay: Induction of drug resistance in vancomycin-sensitive Staphylococcus aureus MRSA252 assessed as fold increase in MIC measured after 16 days of serial passages by broth microdilution method; type: functional; conditions: time 16 day
# [12] = Half life in CD-1 mouse at 10 mg/kg, iv measured for 24 hrs by UPLC analysis; type: ADME, organism-based; conditions: in vivo
# Staphylococcus aureus [13] = assay: Antibacterial activity against Staphylococcus aureus Mu50 assessed as fold decrease in MIC at 1:1 ratio of compound and Ac2KAA at […] incubated for 16 to 24 hrs by absorbance based assay relative to control; type: functional; conditions: dose 128 µg/ml; time 16-24 hrs
# [14] = AUClast in CD-1 mouse at 10 mg/kg, iv measured for 24 hrs by UPLC analysis; type: ADME, organism-based; conditions: in vivo
# Staphylococcus aureus [15] = assay: Induction of cytoplasmic membrane permeabilization in methicillin-resistant Staphylococcus aureus MRSA252 at […] measured for 40 mins by PI/NPN staining based analysis; type: functional, organism-based; conditions: dose 128.0 µg/ml
# [16] = Toxicity in BALB/c mouse infected with methicillin-resistant Staphylococcus aureus MRSA252 assessed as survival rate at 10 mg/kg, iv for 7 days; type: organism-based; conditions: in vivo, 168 h, time 7 day
# Pseudomonas aeruginosa = assay: Antibacterial activity against Pseudomonas aeruginosa PAO1 incubated for 16 to 24 hrs by CLSI based broth microdilution method; type: functional; conditions: time 16-24 hrs
# Staphylococcus aureus [17] = assay: Antibacterial activity against vancomycin-intermediate Staphylococcus aureus incubated for 16 to 24 hrs by CLSI based broth microdilution method; type: functional; conditions: time 16-24 hrs
# [18] = Volume of distribution at steady state in CD-1 mouse at 10 mg/kg, iv measured for 24 hrs by UPLC analysis; type: ADME, organism-based; conditions: in vivo, read-out: Vdss
# [19] = AUC (infinity) in CD-1 mouse at 10 mg/kg, iv measured for 24 hrs by UPLC analysis; type: ADME, organism-based; conditions: in vivo
# Acinetobacter baumannii = assay: Antibacterial activity against Carbapenem-resistant Acinetobacter baumannii clinical isolate incubated for 16 to 24 hrs by CLSI based broth microdilution method; type: functional; conditions: time 16-24 hrs
# Staphylococcus aureus [20] = assay: Antibacterial activity against Staphylococcus aureus Mu50 at 1:1 ratio of compound and Ac2KAA at […] incubated for 16 to 24 hrs by absorbance based assay; type: functional
compound,measurement,setting,value
CC(C)C[C@@H](N)C(=O)N[C@H]1C(=O)N[C@@H](CC(N)=O)C(=O)N[C@H]2C(=O)N[C@H]3C(=O)N[C@H](C(=O)N[C@H](C(=O)O)c4cc(O)cc(O)c4-c4cc3ccc4O)[C@H](O)c3ccc(c(Cl)c3)Oc3cc2cc(c3O[C@@H]2O[C@H](CO)[C@@H](O)[C@H](O)[C@H]2O[C@H]2C[C@](C)(N)[C@H](O)[C@H](C)O2)Oc2ccc(cc2Cl)[C@H]1O,Activity,Staphylococcus aureus [1],0.2 log10CFU/ml
same,MIC,Escherichia coli,> 128 µg/mL
same,Activity,Staphylococcus aureus [2],1 log10CFU/ml
same,MIC,Enterococcus faecium [3],> 128 µg/mL
same,Time,Staphylococcus aureus [4],1 h
same,MRT inf,[5],33.6 min
same,Activity,Enterococcus faecalis,inactive
same,MIC,Staphylococcus aureus [6],0.5 µg/mL
same,MIC,Enterococcus faecium [7],128 µg/mL
same,MIC,Enterococcus faecium [8],128 µg/mL
same,Activity,[9],62.5%
same,MIC,Klebsiella pneumoniae,> 128 µg/mL
same,clearance,[10],27.3 mL/min/kg
same,fold change (FC),Staphylococcus aureus [11],4
same,half-life,[12],31.8 min
same,fold change (FC),Staphylococcus aureus [13],>32
same,AUC(0-t) at 24 h,[14],5210 ng·h/mL
same,Activity,Staphylococcus aureus [15],inactive
same,Activity,[16],75%
same,MIC,Pseudomonas aeruginosa,> 128 µg/mL
same,MIC,Staphylococcus aureus [17],2 µg/mL
same,Vd,[18],0.919 L/kg
same,AUC(0-inf),[19],6300 ng·h/mL
same,MIC,Acinetobacter baumannii,> 128 µg/mL
same,MIC,Staphylococcus aureus [20],> 128 µg/mL
